Patent publication US20250034136A1 (Nimbus Wadjet, Inc., priority 2023, published 2025)

Columns and labels:
[1] = target: WRN (BV08), human Werner helicase (Uniprot Q14191, amino acids 517-1235 with L1074F point mutation) (Homo sapiens (Human), UniProt Q14191, L1074F); experiment: WRN (BV08) ADP-Glo assay; type: biochemical; details: class symbols A-E, read-out: ADP-Glo_hWRN_IC50
[2] = test system: p21 induction in HCT116 cells; experiment: p21 induction in HCT116 cells; type: cell-based; details: Homo sapiens, HCT-116, 24 h, HCT116 cells, 24 h compound incubation; read-out: P21_EC50
In short: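 HCT116 cells, 2,000/well, treated 24 h at 37 °C with 11-point compound dilutions in duplicate. Fixed, then immunostained for p21 and GAPDH and read by near-IR imaging at 800/700 nm. Normalized to DMSO (low) and reference WRN inhibitor (high) controls; EC50 from non-linear regression.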

Sequence of WRN (BV08), human Werner helicase (Uniprot Q14191, amino acids 517-1235 with L1074F point mutation) (Q14191 other isoform, or with tags, fused parts or gaps L1074F (already in the parent)): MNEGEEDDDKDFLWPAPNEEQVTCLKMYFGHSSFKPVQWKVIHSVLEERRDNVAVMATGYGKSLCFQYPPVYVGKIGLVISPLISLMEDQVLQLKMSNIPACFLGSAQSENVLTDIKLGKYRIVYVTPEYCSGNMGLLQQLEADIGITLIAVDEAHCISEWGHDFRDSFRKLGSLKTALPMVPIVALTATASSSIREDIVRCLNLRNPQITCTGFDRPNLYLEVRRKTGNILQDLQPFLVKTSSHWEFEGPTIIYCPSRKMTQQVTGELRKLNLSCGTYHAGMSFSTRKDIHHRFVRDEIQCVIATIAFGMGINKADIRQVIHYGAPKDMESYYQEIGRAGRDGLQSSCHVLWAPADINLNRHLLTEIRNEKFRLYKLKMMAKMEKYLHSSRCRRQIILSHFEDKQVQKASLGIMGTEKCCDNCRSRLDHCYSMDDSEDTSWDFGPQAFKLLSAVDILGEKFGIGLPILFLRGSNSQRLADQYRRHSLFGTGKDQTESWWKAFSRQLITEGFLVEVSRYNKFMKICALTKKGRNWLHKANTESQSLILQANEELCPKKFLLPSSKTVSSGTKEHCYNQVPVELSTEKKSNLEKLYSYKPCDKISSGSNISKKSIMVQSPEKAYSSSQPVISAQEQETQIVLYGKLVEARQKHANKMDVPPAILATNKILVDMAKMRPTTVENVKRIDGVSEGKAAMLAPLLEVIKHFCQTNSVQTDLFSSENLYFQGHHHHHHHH

IC50 [1]	EC50 [2]	SMILES
5 to 50 nM	< 500 nM	CCc1c(N2CCN(C(=O)c3ncnc(C)c3O)CC2)c(=O)c2nc(N(C)C3CC3)cnc2n1CC(=O)Nc1ccc(C(F)(F)F)cc1Cl [I-58, N-(2-chloro-4-(trifluoromethyl)phenyl)-2-(2-(cyclopropyl(methyl)amino)-6-ethyl-7-(4-(5-hydroxy-6-methylpyrimidine-4-carbonyl)piperazin-1-yl)-8-oxopyrido[2,3-b]pyrazin-5(8H)-yl)acetamide]
5 to 50 nM	2000 to 5000 nM	CCc1c(N2CCN(C(=O)c3ncnc(C)c3O)CC2)c(=O)c2nc(N(C)C3CC(C)(O)C3)cnc2n1CC(=O)Nc1ccc(C(F)(F)F)cc1Cl (stereo not shown) [I-59, N-(2-chloro-4-(trifluoromethyl)phenyl)-2-(6-ethyl-2-((3-hydroxy-3-methylcyclobutyl)(methyl)amino)-7-(4-(5-hydroxy-6-methylpyrimidine-4-carbonyl)piperazin-1-yl)-8-oxopyrido[2,3-b]pyrazin-5(8H)-yl)acetamide]
5 to 50 nM	500 to 2000 nM	CCc1c(N2CCN(C(=O)c3ncnc(C)c3O)CC2)c(=O)c2nc(N(C)C3CC(OC)C3)cnc2n1CC(=O)Nc1ccc(C(F)(F)F)cc1Cl (stereo not shown) [I-60, N-(2-chloro-4-(trifluoromethyl)phenyl)-2-(6-ethyl-7-(4-(5-hydroxy-6-methylpyrimidine-4-carbonyl)piperazin-1-yl)-2-((3-methoxycyclobutyl)(methyl)amino)-8-oxopyrido[2,3-b]pyrazin-5(8H)-yl)acetamide]
5 to 50 nM	< 500 nM	CCc1c(N2CCN(C(=O)c3ncnc(C)c3O)CC2)c(=O)c2nc3cc(C)sc3nc2n1CC(=O)Nc1ccc(C(F)(F)F)cc1Cl [I-61, N-(2-chloro-4-(trifluoromethyl)phenyl)-2-(7-ethyl-6-(4-(5-hydroxy-6-methylpyrimidine-4-carbonyl)piperazin-1-yl)-2-methyl-5-oxopyrido[2,3-b]thieno[3,2-e]pyrazin-8(5H)-yl)acetamide]
5 to 50 nM	> 5000 nM	CCc1c(N2CCN(C(=O)c3c(F)cnc(OC)c3O)CC2)c(=O)c2ncc(C)nc2n1CC(=O)Nc1ccc(C(F)(F)F)cc1Cl [I-62, N-(2-chloro-4-(trifluoromethyl)phenyl)-2-(6-ethyl-7-(4-(5-fluoro-3-hydroxy-2-methoxyisonicotinoyl)piperazin-1-yl)-3-methyl-8-oxopyrido[2,3-b]pyrazin-5(8H)-yl)acetamide]
5 to 50 nM	> 5000 nM	CCc1c(N2CCN(C(=O)c3ncnc(C)c3O)CC2)c(=O)c2nc(-c3cnn(C)c3)c(C)nc2n1CC(=O)Nc1ccc(C(F)(F)F)cc1Cl [I-63, N-(2-chloro-4-(trifluoromethyl)phenyl)-2-(6-ethyl-7-(4-(5-hydroxy-6-methylpyrimidine-4-carbonyl)piperazin-1-yl)-3-methyl-2-(1-methyl-1H-pyrazol-4-yl)-8-oxopyrido[2,3-b]pyrazin-5(8H)-yl)acetamide]
5 to 50 nM	500 to 2000 nM	CCc1c(N2CCN(C(=O)c3ncnc(C)c3O)CC2)c(=O)c2nc(C)c(C)nc2n1CC(=O)Nc1ccc(C(F)(F)F)cc1Cl [I-64, N-(2-chloro-4-(trifluoromethyl)phenyl)-2-(6-ethyl-7-(4-(5-hydroxy-6-methylpyrimidine-4-carbonyl)piperazin-1-yl)-2,3-dimethyl-8-oxopyrido[2,3-b]pyrazin-5(8H)-yl)acetamide]
5 to 50 nM	> 5000 nM	CCc1c(N2CCN(C(=O)c3ncnc(C)c3O)CC2)c(=O)c2nc(-c3ccnc(OC)c3)c(C)nc2n1CC(=O)Nc1ccc(C(F)(F)F)cc1Cl [I-65, N-(2-chloro-4-(trifluoromethyl)phenyl)-2-(6-ethyl-7-(4-(5-hydroxy-6-methylpyrimidine-4-carbonyl)piperazin-1-yl)-2-(2-methoxypyridin-4-yl)-3-methyl-8-oxopyrido[2,3-b]pyrazin-5(8H)-yl)acetamide]
